According to US6410735B1, “1-(4-arylpiperazin-1-y1)-ω-[N-(α,ω-dicarboximido)]-alkanes useful as uro-selective α1-adrenoceptor blockers” (Ranbaxy Laboratories Limited, priority 1997, dated 2002):
Structures can show the parent of a compound that is named as a salt. Where two headings read alike, the source gives them in different places.

Experiments:
[1] = target: T1, α1B-adrenoceptor (Rattus norvegicus, UniProt P15823); assay: Receptor binding assay, [3H]prazosin, rat liver membranes; conditions: rat liver membranes, 0.5 nM [3H]prazosin; read-out: RBA (Ki nM) α1B
T1 construct: from tissue; host or cells: rat liver membranes
T1 sequence (P15823 1-515): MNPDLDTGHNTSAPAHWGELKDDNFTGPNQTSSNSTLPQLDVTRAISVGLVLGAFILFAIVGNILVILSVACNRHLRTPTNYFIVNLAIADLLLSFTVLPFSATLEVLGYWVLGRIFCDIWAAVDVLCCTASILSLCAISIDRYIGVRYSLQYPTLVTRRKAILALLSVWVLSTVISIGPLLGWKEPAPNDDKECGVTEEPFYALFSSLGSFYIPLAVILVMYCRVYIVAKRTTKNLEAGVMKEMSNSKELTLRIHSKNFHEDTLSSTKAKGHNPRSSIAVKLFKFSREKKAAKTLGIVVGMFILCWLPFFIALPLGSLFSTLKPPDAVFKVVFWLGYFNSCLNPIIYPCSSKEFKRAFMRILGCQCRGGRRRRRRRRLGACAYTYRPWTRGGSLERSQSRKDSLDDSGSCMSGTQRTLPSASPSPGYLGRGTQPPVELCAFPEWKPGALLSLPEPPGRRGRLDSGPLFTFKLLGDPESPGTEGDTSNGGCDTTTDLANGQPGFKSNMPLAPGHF
Experimental: (§1) Receptor binding assays, (RBA's) were performed for native α1-adrenoceptors. Rat submaxillary and rat liver membrane preparations were used to assess the affinity for α1A and α1B subtypes, respectively. Aliquots of membrane protein ([…]) were incubated in a final volume of […] assay buffer (50 mM Tris, 0.5 mM EDTA at pH 7.4) with 0.5 nM [^3H] prazosin for 60 mins at 28 ° C. Reaction was stopped by rapid filtration on Millipore filters. Filters were dried and bound radioactivity counted. Non-specific binding was determined in the presence of 0.3 mM prazosin.

[2] = target: T2, α1A-adrenoceptor (prostate) (Rattus norvegicus, UniProt P43140); assay: In vitro functional assay, phenylephrine-induced contraction of isolated prostate; type: cell-based
T2 construct: Aorta, prostate and spleen tissues were isolated from urethane anaesthetized (1.5 gm/kg) male wistar rats; from tissue; host or cells: isolated prostate of male Wistar rats
T2 sequence (P43140 1-466): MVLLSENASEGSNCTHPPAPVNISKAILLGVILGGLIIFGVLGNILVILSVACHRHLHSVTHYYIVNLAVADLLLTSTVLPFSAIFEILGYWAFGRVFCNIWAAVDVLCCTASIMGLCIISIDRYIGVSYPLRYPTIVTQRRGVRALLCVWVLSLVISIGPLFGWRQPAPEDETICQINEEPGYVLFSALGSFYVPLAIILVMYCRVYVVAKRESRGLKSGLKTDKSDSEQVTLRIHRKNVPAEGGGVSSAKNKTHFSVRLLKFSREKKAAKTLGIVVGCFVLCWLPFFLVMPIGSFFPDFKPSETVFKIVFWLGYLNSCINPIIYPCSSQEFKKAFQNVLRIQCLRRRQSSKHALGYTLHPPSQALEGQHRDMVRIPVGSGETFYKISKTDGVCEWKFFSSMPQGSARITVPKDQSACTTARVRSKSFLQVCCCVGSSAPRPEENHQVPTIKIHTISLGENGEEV
Source text: (§2) In order to study selectivity of action of the present compounds towards different α-adrenoceptor subtypes, the ability of these compounds to antagonize α1-adrenoceptor agonist induced contractile response of aorta (α1D), prostate (α1A) and spleen (α1B) was studied. Aorta, prostate and spleen tissues were isolated from urethane anaesthetized (1.5 gm/kg) male wistar rats. Isolated tissues were mounted in organ bath containing Krebs Henseleit buffer of the following composition (mM): NaCl 118; KCl 4.7; CaCl2 2.5; MgSO4·H2O 1.2; NaHCO3 25; KH2PO4 1.2; glucose 11.5. Buffer was maintained at 37° C. and aerated with a mixture of 95% O2 and 5% CO2. A resting tension of 2 g (aorta) or 1 g (spleen and prostate) was applied to tissues. Contractile response was monitored using a force displacement transducer and recorded on chart recorders. Tissues were allowed to equilibrate for 2 hours. At the end of equilibration period, concentration response curves to norepinephrine (aorta) and phenylephrine (spleen and prostate) were obtained in the absence and presence of the tested compound (at concentrations of 0.1, 1 and 10 μM). Antagonist affinity was calculated and expressed as PKB values in Table 1.

[3] = target: T3, α1B-adrenoceptor (spleen) (Rattus norvegicus, UniProt P15823); assay: In vitro functional assay, phenylephrine-induced contraction of isolated spleen; type: cell-based
T3 construct: Aorta, prostate and spleen tissues were isolated from urethane anaesthetized (1.5 gm/kg) male wistar rats; from tissue; host or cells: isolated spleen of male Wistar rats
T3 sequence (P15823 1-515): T1 sequence (P15823 1-515)
Source text: as §2

[4] = target: T4, α1D-adrenoceptor (aorta) (Rattus norvegicus, UniProt P23944); assay: In vitro functional assay, norepinephrine-induced contraction of isolated aorta; type: cell-based
T4 construct: Aorta, prostate and spleen tissues were isolated from urethane anaesthetized (1.5 gm/kg) male wistar rats; from tissue; host or cells: isolated aorta of male Wistar rats
T4 sequence (P23944 1-561): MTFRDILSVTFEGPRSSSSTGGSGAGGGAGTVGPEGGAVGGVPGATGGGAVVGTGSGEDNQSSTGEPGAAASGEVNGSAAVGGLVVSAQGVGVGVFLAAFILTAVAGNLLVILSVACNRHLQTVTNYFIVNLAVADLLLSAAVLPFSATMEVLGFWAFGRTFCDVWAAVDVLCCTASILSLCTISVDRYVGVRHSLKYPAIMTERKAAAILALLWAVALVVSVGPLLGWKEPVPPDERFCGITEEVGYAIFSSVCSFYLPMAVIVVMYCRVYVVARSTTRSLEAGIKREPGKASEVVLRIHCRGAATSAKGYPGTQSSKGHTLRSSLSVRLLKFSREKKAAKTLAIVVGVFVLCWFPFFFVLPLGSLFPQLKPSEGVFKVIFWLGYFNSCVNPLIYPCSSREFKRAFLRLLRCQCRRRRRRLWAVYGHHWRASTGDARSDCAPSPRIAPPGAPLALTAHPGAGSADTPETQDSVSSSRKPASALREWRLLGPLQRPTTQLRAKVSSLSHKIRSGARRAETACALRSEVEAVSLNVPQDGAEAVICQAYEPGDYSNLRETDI
Source text: as §2

[5] = target: T5, α1A-adrenoceptor (Rattus norvegicus, UniProt P43140); assay: Receptor binding assay, [3H]prazosin, rat submaxillary membranes
T5 construct: from tissue; host or cells: rat submaxillary gland membranes
T5 sequence (P43140 1-466): T2 sequence (P43140 1-466)
Experimental: as §1

[6] = rat prostate, phenylephrine, read-out: In Vitro Functional Assay (pKB) α1A (converted)
[7] = rat spleen, phenylephrine, read-out: In Vitro Functional Assay (pKB) α1B (converted)
[8] = rat aorta, norepinephrine, read-out: In Vitro Functional Assay (pKB) α1D (converted)
[9] = rat submaxillary membranes, 0.5 nM [3H]prazosin, read-out: RBA (Ki nM) α1A

## O=C1CCC(=O)N1CCCN1CCN(c2cccc(C(F)(F)F)c2)CC1 (as salt: hydrochloride) [Compound 3, 1-[4-(3-Trifluoromethylphenyl)piperazin-1-yl]-3-(2,5-dioxopyrrolidin-1-yl)propane]
other
  melting point: 218 to 220 °C

## O=C1CCC(=O)N1CCCN1CCN(c2ccccn2)CC1 (as salt: hydrochloride) [Compound 4, 1-[4-(2-Pyridyl)piperazin-1-yl]-3-(2,5-dioxopyrrolidin-1-yl)propane]
other
  melting point: 261 to 262 °C

## O=C1CCC(=O)N1CCCN1CCN(c2cccc(Cl)c2)CC1 (as salt: hydrochloride) [Compound 5, 1-[4-(3-Chlorophenyl)piperazin-1-yl]-3-(2,5-dioxopyrrolidin-1-yl)propane]
other
  melting point: 230 to 231 °C

## COc1ccccc1N1CCN(CCN2C(=O)CCC2=O)CC1 (as salt: hydrochloride) [Compound 10, 1-[4-(2-Methoxyphenyl)piperazin-1-yl]-2-(2,5-dioxopyrrolidin-1-yl)ethane]
other
  melting point: 232 to 234 °C

## O=C1CCCC(=O)N1CCCN1CCN(c2cccc(C(F)(F)F)c2)CC1 (as salt: hydrochloride) [Compound 16, 1-[4-(3-Trifluoromethylphenyl)piperazin-1-yl]-3-(2,6-dioxopiperidin-1-yl)propane]
other
  melting point: 228 to 229 °C

## O=C1CCCC(=O)N1CCCN1CCN(c2ccccn2)CC1 (as salt: hydrochloride) [Compound 19, 1-[4-(2-Pyridyl)piperazin-1-yl)-3-(2,6-dioxopiperidin-1-yl)propane]
other
  melting point: 244 to 245 °C

## O=C1CCCC(=O)N1CCCN1CCN(c2cccc(Cl)c2)CC1 (as salt: hydrochloride) [Compound 20, 1-[4-(3-Chlorophenyl)piperazin-1-yl]-3-(2,6-dioxopiperidin-1-yl)propane]
other
  melting point: 214 to 215 °C

## O=C1CCCC(=O)N1CCCN1CCN(c2ccccc2F)CC1 [Compound 17, 1-[4-(2-Fluorophenyl)piperazin-1-yl]-3-(2,6-dioxopiperidin-1-yl)propane]
[1]
  Ki: 396 nM
[2]
  Kb: 10 nM
[3]
  Kb: 79.4 nM
[4]
  Kb: 12.6 nM
[5]
  Ki: 21 nM

## Cc1ccccc1N1CCN(CCCN2C(=O)CCCC2=O)CC1 [Compound 18, 1-[4-(2-Methylphenyl)piperazin-1-yl]-3-(2,6-dioxopiperidin-1yl)propane]
[1]
  Ki: 267 nM
[2]; [6]
  Kb: 6.31 nM
[3]; [7]
  Kb: 3160 nM
[4]; [8]
  Kb: 3.16 nM
[5]; [9]
  Ki: 9 nM

## Cc1ccc(N2CCN(CCCN3C(=O)CCCC3=O)CC2)cc1C [Compound 21, 1-[4-(3,4-Dimethylphenyl)piperazin-1-yl]-3-(2,6-dioxopiperidin-1yl)propane]
[1]
  Ki: 176 nM
[2]; [6]
  Kb: 316 nM
[3]; [7]
  Kb: 200 nM
[4]; [8]
  Kb: 316 nM
[5]; [9]
  Ki: 2130 nM
